Seven compounds from patent publication US11992011B2, “Compounds for controlling plant pathogens” (VIB VZW, priority 2017, dated 2024) can be followed below.

One data set has as its system C4H enzyme. As to the kind of experiment: Yeast heterologous expression assay of C4H inhibition (Example 15). Type of data set: biochemical. The procedure: Further structural analogs of the C4H inhibitor 4-iodobenzoic acid (IBA) were tested for their ability to inhibit the C4H enzyme in a yeast heterologous expression assay.
In data set [1] the test system is Arabidopsis thaliana (ecotype Col-0) seedlings. As to the kind of experiment: In vitro Arabidopsis thaliana seedling growth assay (Example 15). Type of data set: in vivo. To be noted: for Agravitropy ratio / Primary root length / Rosette area: 14 days old seedlings; for Agravitropy ratio / Primary root length / Rosette area / Germination rate: mean ± SD.
In the next data set the test system is Meloidogyne incognita. As to the kind of experiment: M. incognita infection in DIECA-treated tomato (Example 18). Type of data set: in vivo. To be noted: DIECA alone. The procedure: Infection experiments with M. incognita were performed in the same manner as those with M. graminicola, except that plants were harvested 31 days after inoculation instead of 14 days. At this point, the plants were phenotyped by measuring the root length with a ruler and in some experiments by measuring leaf area using the EasyLeafArea software (Easlon and Bloom, 2014) and by determining shoot dry mass after 72 hours of drying in an oven at 70° C. Galls were stained and counted as described above.
To determine whether C4H inhibitors depend on this hormonal pathway, it was tested whether tomato plants treated with the chemical inhibitor of jasmonic acid biosynthesis diethyldithiocarbamate (DIECA) (Farmer et al., 1994) still responded to PA treatment.

In data set [2] the test system is J2 juveniles of Meloidogyne graminicola. As to the kind of experiment: In vitro nematode toxicity assay, M. graminicola J2 (Example 11). To be noted: second experiment, C4H inhibitor 100 μM, Vertimec 0.02 v/v % abamectin, water control 93%. The procedure:
J2 juveniles of Meloidogyne graminicola and Heterodera schachtii were isolated from Echinocloa cruss-galli roots and sugar beet roots respectively. Per treatment and species combination, 300 nematodes were isolated and divided over six wells that contained 1.5 ml of either sterilized tap water, a 100 μM C4H inhibitor solution or a 0.02 v/v % solution of the nematicide abamectin (Vertimec®, Syngenta AG). The nematodes were incubated in the dark on a slow-moving rotary shaker (50 rpm) and the number of living nematodes was counted regularly using a binocular microscope.
To rule out definitively that the compounds of the invention operate through direct toxicity to nematodes, an in vitro toxicity assay on J2 juveniles of the nematodes Meloidogyne graminicola and Heterodera schachtii was performed.
First, survival upon exposure to the C4H inhibitor piperonylic acid (PA) was compared to a negative control (tap water) and a positive control, the commercial nematicide Vertimec (0.02% Abamectin). A detailed survival curve is shown in FIG. 12a (M. graminicola) and FIG. 12b (H. schachtii).
In a second experiment, a broader range of C4H inhibitors were assayed in the same manner. The toxicity of piperonylic acid (PA), piperine (PIP), 4-propynyloxybenzoic acid (4PB), and 3-(4-pyridyl)acrylic acid (3PA) to J2 juveniles of Meloidogyne graminicola was compared to a negative control (tap water) and a true nematicide (Vertimec, active ingredient abamectin).

For data set [3], the system named is Meloidogyne graminicola. As to the kind of experiment: Meloidogyne graminicola infection in rice cv. Kitaake, additional C4H inhibitors (Example 6). Particulars: foliar spray, N=8. Type of data set: in vivo. The procedure:
(§1) Unless otherwise mentioned, all chemicals for nematode experiments were applied as a foliar spray consisting of the target compound at a concentration of 300 μM together with 0.1% (v/v) Tween 20 surfactant (Calbiochem) in distilled water. Again unless otherwise mentioned, all treatments for the nematode experiments were carried out three times: one and eight days before pathogen inoculation and seven days after pathogen inoculation. In all cases, plants were sprayed until run-off with an atomizer.
(§2) Infection experiments with M. graminicola were performed by inoculating host plants 14 days after transfer to SAP by introducing the desired amount of J2 juveniles next to the root system using a micro pipette. Rice plants (cv. Nipponbare or Kitaake) were inoculated with 250 J2 juveniles per plant; wheat plants (cv. Sahara) were inoculated with 600 J2 juveniles per plant. Plants were harvested 14 days after inoculation. At this point, the plants were phenotyped by measuring the shoot and root length with a ruler, counting the number of adventitious roots and in some experiments by measuring leaf area using the EasyLeafArea software (Easlon and Bloom, 2014) and by determining shoot dry mass after 72 hours of drying in an oven at 70° C. Root systems were then stained in acid fuchsine as described in (Byrd et al., 1983) and left to destain in glycerol with 1 ml/l fuming HCl added for approximately ten days. The number of galls and nematodes was then counted using a binocular microscope.
Four different C4H inhibitors were used: piperonylic acid (PA), piperine (PIP), 4-propynyloxybenzoic acid (4PB) and 3-(4-pyridyl)acrylic acid (3PA).

For the next data set, the system named is wheat. As to the kind of experiment: Phytotoxicity of foliar spray in uninfected wheat (Example 1). Type of data set: in vivo, Triticum aestivum. To be noted: 500 μM foliar spray, 8 plants per treatment; for Root length / Shoot length: mean ± standard deviation; for BBCH stage: median ± interquartile range. As for the experimental part: (§3) For Examples 1, 5 and 10, seeds of the winter wheat cultivar Sahara (Aveve Agrarisch, Landen, Belgium) were used. Seeds were washed in a 10% ethanol solution to remove any residual traces of fungicide and then germinated on wet paper at room temperature for four days; seeds were transferred to SAP tubes and placed in a growth chamber (25° C., 16 hours per day of light). Plants were watered with 8 ml of half-strength Hoagland solution every two days for the first ten days and with 8 ml of full strength Hoagland solution every two days afterwards.
as §1
(§4) Short-term phytotoxicity experiments (Example 1) were analyzed using non-parametric methods. For each variable, overall significance was determined using the Kruskal-Wallis test (Kruskal and Wallis, 1952), followed by a posthoc Conover-Iman test (Conover and Iman, 1981) with Hommel multiplicity correction (Hommel, 1988) if the Kruskal-Wallis test was significant. When only two groups were present, the Wilcoxon-Mann-Whitney test was used (Mann and Whitney, 1947).
(§5) To test whether C4H inhibitors induce phytotoxic effects in crops, uninfected tomato, wheat and carrot were treated with piperonylic acid (PA), 4-iodobenzoic acid (4-IBA) and piperic acid (PIA) at a concentration of 500 μM through foliar application. At harvest, leaf area (or shoot length in the case of wheat) and primary root length were recorded. The BBCH developmental stage (Lancashire et al., 1991), a measure of developmental retardation, was used to test for effects on development. Finally, the presence of visible signs of phytotoxicity such as chlorosis, discoloration or necrosis was recorded.

In data set [4] the test system is Meloidogyne graminicola. As to the kind of experiment: Meloidogyne graminicola infection in wheat cv. Sahara (Example 5). Type of data set: in vivo. To be noted: infected wheat, foliar spray. As for the experimental part: as §3, §1, §2
In this experiment, the compounds PA, MDCA and 4-IBA were tested as foliar spray in the monocot staple crop wheat (Triticum aestivum, cv. Sahara) against the nematode Meloidogyne graminicola. The bacterial compound LPS (lipopolysaccharide), which is a potent inducer of the plant immune system and a known priming agent (Desaki et al., 2006), was also included as a positive control.

The next data set relates to tomato. As to the kind of experiment: Phytotoxicity of foliar spray in uninfected tomato (Example 1). Type of data set: in vivo, Solanum lycopersicum. Particulars: 500 μM foliar spray, 8 plants per treatment; for Leaf Area / Root length: mean ± standard deviation; for BBCH stage: median ± interquartile range. The procedure: Tomato seeds, cv. Moneymaker (Vreeken's Zaden, Dordrecht, the Netherlands) were sown on autoclaved potting soil coveed with polyethylene film and placed at 24° C. for eight days. Seedlings were then transferred to individual SAP-filled pots and placed in a growth chamber at 24° C. Plants were watered three times per week with 25 ml of quarter-strength Hoagland solution for the first two weeks and half-strength thereafter.
as §1, §4, §5

The next data set concerns carrot. As to the kind of experiment: Phytotoxicity of foliar spray in uninfected carrot (Example 1). Type of data set: in vivo, Daucus carota. Particulars: 500 μM foliar spray, 8 plants per treatment; for Leaf Area: mean ± standard deviation; for BBCH stage: median ± interquartile range. As for the experimental part: Carrot seeds, cv. Nantes 2 (Vreeken's Zaden, Dordrecht, the Netherlands) were germinated on wet paper for seven days at 21° C. After germination, seedlings were transferred to individual pots filled with potting soil and placed in a growth chamber at 21° C.
as §1, §4, §5

In data set [5] the test system is spring wheat (Triticum aestivum cv. Fielder). As to the kind of experiment: Yield and fertility in pathogen-free spring wheat (Example 2). Particulars: 300 μM foliar spray three times; vs. control.
Method: For Example 2, the spring wheat cultivar Fielder was used. Seeds were obtained from plants grown in the greenhouse complex of the VIB (Zwijnaarde, Belgium). Seeds were sown directly in potting soil (four seeds to a pot, thinned to three plants per pot after emergence) and placed in a growth chamber at 21° C. with 16 hours per day of light. These plants were grown until harvest; they were sprayed three times with the compounds of the invention at a concentration of 300 μM using the protocol described in the chemicals section. Spraying took place 14 and 21 days after emergence and a final time at heading.
In all cases model assumptions were verified using diagnostic plots (residuals, QQ-plot, scale-location and residuals-leverage). Outliers were removed only if they were outliers both in the statistical sense and if there was a biological reason for removal (e.g. the plant was stunted or developed a secondary infection).
To determine the effects of C4H inhibition on yield and fertility, spring wheat (Triticum aestivum cv. Fielder) was grown in a pathogen-free growth chamber until maturity and treated with a control or C4H inhibitor-containing foliar spray at regular intervals. At harvest, the number of ears per plant, the seed mass, the size of the seeds and the germination ability of the freshly harvested seeds were measured. Seed size was measured using the stacking density of the seed as a proxy measure; if a given seed mass takes up a greater volume, then the individual seeds must be larger.

On to `O=C(O)c1ccc(C(F)(F)F)cc1` [CF3-BA, 4-trifluoromethylbenzoic acid], for which, in the data set on C4H enzyme, the C4H inhibitor activity result is “significant C4H inhibitor activity”. Further, in data set [1] (50 μM), the Agravitropy ratio stood at 0.79 ± 0.15, the Primary root length is listed as 0.42 ± 0.14 cm, the Rosette area came out at 0.16 ± 0.06 cm^2 and the Germination rate stood at 0.95 ± 0.22. Moreover, in data set [1] (100 μM), the Agravitropy ratio came to 0.81 ± 0.10, the Primary root length is 0.41 ± 0.14 cm, the Rosette area came to 0.15 ± 0.09 cm^2 and the Germination rate turned out to be 0.84 ± 0.37. In addition, the “seedling phenotype compared with IBA” value in data set [1] (seedlings grown on amended medium) is reported as “identical phenotype to those grown on medium containing IBA”.
On to `CCN(CC)C(=S)S` [DIECA, diethyldithiocarbamate, reference compound], for which the “change of number of galls, DIECA-treated tomato plants vs wild type” value in the data set on Meloidogyne incognita is “+26%”.
On to `O=C(O)/C=C/c1ccncc1` [Formula 3PA, 3-(4-pyridyl)-acrylic acid], for which, in data set [2], the “survival at the end of the experiment” value is 93%. Further, the “reduction in the number of galls compared to the control group” value (“reduction in the number of galls” below) with Meloidogyne graminicola [3] is recorded as −47%.
In the data set on wheat, `O=C(O)c1ccc(I)cc1` [Formula 4-IBA, 4-iodobenzoic acid] returned a Root length of 14.36 ± 2.78 cm, a Shoot length of 31.93 ± 3.38 cm and a BBCH stage of 13 ± 0. Besides, in data set [2], the “survival at the end of the experiment” value is given as 89%. For the same compound, in the data set with Meloidogyne graminicola [4] (n = 9), the “Number of galls per AR” value is reported as 2.7 ± 0.8. Moreover, in the data set with Meloidogyne graminicola [4] (per root system, n = 9), the Number of galls worked out at 27.8 ± 7.5. Moreover, the “reduction in gall numbers” value with Meloidogyne graminicola [4] (vs control) is −27%. Moreover, in the data set with tomato, the “Leaf Area” value is given as 8.92 ± 1.91 cm^2, the Root length is 7.40 ± 0.79 cm and the BBCH stage turned out to be 102.5 ± 1.0. For the same compound, in [1] (50 μM), the Agravitropy ratio is on record as 0.78 ± 0.17, the Primary root length was 0.43 ± 0.15 cm, the Rosette area stood at 0.10 ± 0.06 cm^2 and the Germination rate is recorded as 0.88 ± 0.34. Further, in [1] (100 μM), the Agravitropy ratio turned out to be 0.82 ± 0.11, the Primary root length is recorded as 0.28 ± 0.07 cm, the Rosette area is reported as 0.05 ± 0.01 cm^2 and the Germination rate is reported as 0.84 ± 0.37. Also, in the data set on carrot, the “Leaf Area” value is reported as 5.05 ± 1.35 cm^2 and the BBCH stage is 13 ± 0.
With `C#CCOc1ccc(C(=O)O)cc1` [Formula 4PB, 4-propynyloxybenzoic acid], in the data set with C4H enzyme, the C4H inhibitor activity result is recorded as “significant C4H inhibitor activity”. Also, the “survival at the end of the experiment” value in data set [2] was found to be 91%. In addition, the “reduction in the number of galls” value with Meloidogyne graminicola [3] is −44%.
In the data set on wheat, `O=C(O)/C=C/C=C/c1ccc2c(c1)OCO2` [PIA, Piperic acid] gave a Root length of 14.57 ± 1.24 cm, a Shoot length of 31.07 ± 4.82 cm and a BBCH stage of 13 ± 0. Also, in the data set on tomato, the “Leaf Area” value was 12.21 ± 1.66 cm^2, the Root length came to 8.24 ± 1.90 cm and the BBCH stage is recorded as 103 ± 1.0. For the same compound, in the data set on carrot, the “Leaf Area” value is listed as 4.78 ± 0.85 cm^2 and the BBCH stage is given as 13 ± 0.
In the case of `O=C(/C=C/C=C/c1ccc2c(c1)OCO2)N1CCCCC1` [piperine, Piperine], the “survival at the end of the experiment” value in [2] is 91%. The “reduction in the number of galls” value in the data set with Meloidogyne graminicola [3] is listed as −33%. In [5], the “Total yield (seed mass)” value was “small but statistically significant increase”, the “germination after fourteen days of freshly harvested seeds” value is listed as “not significantly different”, the “mean number of ears per plant” value is recorded as “the same in all treatments” and the “seed size (stacking density)” value is on record as “no effect”.
